Test results reported in patent publication US7687473B2, “5-amino-4-imidazolecarboxamide riboside and its nucleobase as potentiators of antifolate transport and metabolism” (Health Research, Inc., priority 2005, dated 2010).
Like-named read-outs stand apart in the source and are kept apart here.

Test system: CCRF-CEM cells
Test: cells
Format: cell-based, human
Conditions: read-out: EC50, growth inhibition
Protocol: Inhibition of growth of human cell lines in vitro. Inhibition of growth of CCRF-CEM in continuous and intermittent drug exposures was measured. EC50 values were determined from plots of percent control growth versus the logarithm of drug concentration.
[…]; n=2). […]; n=2). Values presented are average±S.D. for n>2 and average±range for n=2. […] […]; EC50 data may therefore underestimate the biological potency.

With NC(=O)c1ncn([C@@H]2O[C@H](CO)[C@@H](O)[C@H]2O)c1N [Z, 5-amino-4-imidazolecarboxamide riboside] the EC50 (0-24/120 hr exposure) was 410 ± 50 µM and the EC50 (120 hr exposure) was 130 ± 20 µM.
